Results published in the NIST ThermoML archive (doi:10.1021/acs.jced.8b00387).

Test: xn = mol fraction of the nth substance listed
Conditions: for viscosity / mass density / speed of sound: 102 kPa, Liquid; for viscosity: Concentric cylinders viscometry; for mass density: Vibrating tube method; for speed of sound: Frequency=3 MHz, Single path-length method; for surface tension liquid-gas: 295 K, Pendant drop shape

CC(CC(C)(C)C)CC(C)(C)C [2,2,4,6,6-pentamethylheptane] + CCCCc1ccccc1
Conditions	mass density [kg/m3]	speed of sound [m/s]	viscosity [mPa·s]
253.15 K, x2 = 0.1001	782.1	–	–
253.15 K, x2 = 0.1015	–	–	2.82
253.15 K, x2 = 0.2	791.5	–	–
253.15 K, x2 = 0.2005	–	–	2.63
253.15 K, x2 = 0.2999	–	–	2.49
253.15 K, x2 = 0.3001	801	–	–
253.15 K, x2 = 0.4001	–	–	2.37
253.15 K, x2 = 0.4006	811.2	–	–
253.15 K, x2 = 0.4996	–	–	2.28
253.15 K, x2 = 0.5	822.2	–	–
253.15 K, x2 = 0.6	–	–	2.24
253.15 K, x2 = 0.6002	834.1	–	–
253.15 K, x2 = 0.6999	846.8	–	2.2
253.15 K, x2 = 0.8	–	–	2.19
253.15 K, x2 = 0.8009	860	–	–
253.15 K, x2 = 0.9	876.1	–	2.21
288.15 K, x2 = 0.1001	756.92	1234.1	–
288.15 K, x2 = 0.2	765.57	1245.3	–
288.15 K, x2 = 0.3001	774.88	1257.1	–
288.15 K, x2 = 0.4006	784.92	1270	–
288.15 K, x2 = 0.5	795.63	1283.8	–
288.15 K, x2 = 0.6002	807.34	1298.7	–
288.15 K, x2 = 0.6999	819.87	1315	–
288.15 K, x2 = 0.8009	833.77	1332.9	–
288.15 K, x2 = 0.9	848.29	1352.1	–
293.15 K, x2 = 0.1001	753.25	1214.1	–
293.15 K, x2 = 0.1015	–	–	1.24
293.15 K, x2 = 0.2	761.88	1225.4	–
293.15 K, x2 = 0.2005	–	–	1.18
293.15 K, x2 = 0.2999	–	–	1.13
293.15 K, x2 = 0.3001	771.17	1237.2	–
293.15 K, x2 = 0.4001	–	–	1.08
293.15 K, x2 = 0.4006	781.17	1250	–
293.15 K, x2 = 0.4996	–	–	1.05
293.15 K, x2 = 0.5	791.85	1263.8	–
293.15 K, x2 = 0.6	–	–	1.02
293.15 K, x2 = 0.6002	803.52	1278.9	–
293.15 K, x2 = 0.6999	816.01	1295	1.01
293.15 K, x2 = 0.8	–	–	0.995
293.15 K, x2 = 0.8009	829.8	1312.9	–
293.15 K, x2 = 0.9	844.33	1332.1	0.997
303.15 K, x2 = 0.1001	745.91	1175	–
303.15 K, x2 = 0.1015	–	–	1.07
303.15 K, x2 = 0.2	754.49	1186.5	–
303.15 K, x2 = 0.2005	–	–	1.03
303.15 K, x2 = 0.2999	–	–	0.989
303.15 K, x2 = 0.3001	763.72	1198	–
303.15 K, x2 = 0.4001	–	–	0.951
303.15 K, x2 = 0.4006	773.66	1210.8	–
303.15 K, x2 = 0.4996	–	–	0.924
303.15 K, x2 = 0.5	784.27	1224.6	–
303.15 K, x2 = 0.6	–	–	0.904
303.15 K, x2 = 0.6002	795.86	1240.1	–
303.15 K, x2 = 0.6999	808.28	1255.8	0.887
303.15 K, x2 = 0.8	–	–	0.874
303.15 K, x2 = 0.8009	821.96	1274.1	–
303.15 K, x2 = 0.9	836.41	1292.8	0.874
313.15 K, x2 = 0.1001	738.55	1136.7	–
313.15 K, x2 = 0.1015	–	–	0.92
313.15 K, x2 = 0.2	747.07	1148.4	–
313.15 K, x2 = 0.2005	–	–	0.89
313.15 K, x2 = 0.2999	–	–	0.862
313.15 K, x2 = 0.3001	756.25	1159.8	–
313.15 K, x2 = 0.4001	–	–	0.837
313.15 K, x2 = 0.4006	766.12	1172.6	–
313.15 K, x2 = 0.4996	–	–	0.814
313.15 K, x2 = 0.5	776.66	1186.3	–
313.15 K, x2 = 0.6	–	–	0.798
313.15 K, x2 = 0.6002	788.17	1201.9	–
313.15 K, x2 = 0.6999	800.51	1217.5	0.781
313.15 K, x2 = 0.8	–	–	0.77
313.15 K, x2 = 0.8009	814.1	1235.9	–
313.15 K, x2 = 0.9	828.46	1254.4	0.77
323.15 K, x2 = 0.1001	731.16	1099.4	–
323.15 K, x2 = 0.1015	–	–	0.813
323.15 K, x2 = 0.2	739.61	1111	–
323.15 K, x2 = 0.2005	–	–	0.784
323.15 K, x2 = 0.2999	–	–	0.762
323.15 K, x2 = 0.3001	748.74	1122.4	–
323.15 K, x2 = 0.4001	–	–	0.735
323.15 K, x2 = 0.4006	758.55	1135.1	–
323.15 K, x2 = 0.4996	–	–	0.718
323.15 K, x2 = 0.5	769.02	1148.8	–
323.15 K, x2 = 0.6	–	–	0.703
323.15 K, x2 = 0.6002	780.45	1164.4	–
323.15 K, x2 = 0.6999	792.72	1179.9	0.692
323.15 K, x2 = 0.8	–	–	0.682
323.15 K, x2 = 0.8009	806.2	1198.3	–
323.15 K, x2 = 0.9	820.47	1216.8	0.683
333.15 K, x2 = 0.1001	723.71	1063	–
333.15 K, x2 = 0.1015	–	–	0.715
333.15 K, x2 = 0.2	732.11	1074.5	–
333.15 K, x2 = 0.2005	–	–	0.692
333.15 K, x2 = 0.2999	–	–	0.675
333.15 K, x2 = 0.3001	741.19	1086.1	–
333.15 K, x2 = 0.4001	–	–	0.653
333.15 K, x2 = 0.4006	750.94	1098.7	–
333.15 K, x2 = 0.4996	–	–	0.636
333.15 K, x2 = 0.5	761.34	1112.3	–
333.15 K, x2 = 0.6	–	–	0.627
333.15 K, x2 = 0.6002	772.69	1127.7	–
333.15 K, x2 = 0.6999	784.88	1143.2	0.617
333.15 K, x2 = 0.8	–	–	0.61
333.15 K, x2 = 0.8009	798.16	1161.4	–
333.15 K, x2 = 0.9	812.44	1180	0.611

Conditions	surface tension liquid-gas [mN/m]
x2 = 0.1001	22
x2 = 0.2	22.2
x2 = 0.3001	22.7
x2 = 0.4006	23.1
x2 = 0.5	23.5
x2 = 0.6002	24
x2 = 0.6999	24.8
x2 = 0.8009	25.7
x2 = 0.8985	26.7
